Columns and labels:
PPARγ = molecular target: T1, PPARγ (Homo sapiens, UniProt P37231); test: PPARγ reporter (PPRE) luciferase assay in 293T cells; assay type: cell-based; details: 1 μM 24 hours before 10 μM rosiglitazone or troglitazone 12 hours, FIG. 3D
T1 construct: 293T cells that were transfected with a plasmid (1 μg) expressing a PPARγ reporter gene; endogenous in cells; host or cells: 293T
T1 sequence (P37231 1-505): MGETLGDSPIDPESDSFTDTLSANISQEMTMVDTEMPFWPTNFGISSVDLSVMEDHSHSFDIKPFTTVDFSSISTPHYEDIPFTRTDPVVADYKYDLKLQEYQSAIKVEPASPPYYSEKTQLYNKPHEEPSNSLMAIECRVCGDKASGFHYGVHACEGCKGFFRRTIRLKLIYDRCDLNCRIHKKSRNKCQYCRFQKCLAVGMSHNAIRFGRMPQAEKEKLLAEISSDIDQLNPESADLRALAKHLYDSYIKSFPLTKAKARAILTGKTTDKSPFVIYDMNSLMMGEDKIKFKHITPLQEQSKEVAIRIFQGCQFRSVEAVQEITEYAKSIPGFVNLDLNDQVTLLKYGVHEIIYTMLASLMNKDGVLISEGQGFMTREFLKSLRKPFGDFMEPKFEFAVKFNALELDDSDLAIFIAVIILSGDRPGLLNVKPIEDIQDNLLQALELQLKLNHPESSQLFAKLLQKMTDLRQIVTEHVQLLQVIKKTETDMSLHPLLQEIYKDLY
Procedure: Luciferase assays were performed as described elsewhere (Kim et al., 2005, which is hereby incorporated by reference for all purposes as if fully set forth herein).
293T cells that were transfected with a plasmid (1 μg) expressing a PPARγ reporter gene. After transfection, cells were pretreated or not pretreated with 1 μM of GW9662 for 24 hours, before being treated with 10 μM of rosiglitazone (Rosi) or troglitazone (Tro) for 12 hours. The obtained relative luciferase activities in the cell extracts normalized to a mock-treated control extract are shown in FIG. 3D.

HeLa cells = test: Stress granule (SG) formation in HeLa cells, immunocytochemistry; assay type: cell-based; details: pretreated with 1 μM for 24 hours, then 50 μM prostaglandin 1 hour, FIG. 3C
eIF4A = molecular target: T2, eIF4A (Homo sapiens, UniProt P60842); details: cited from earlier work
T2 construct: His; gift of Dr. Nadejda Korneeva, Louisiana State University
T2 sequence (P60842 whole entry): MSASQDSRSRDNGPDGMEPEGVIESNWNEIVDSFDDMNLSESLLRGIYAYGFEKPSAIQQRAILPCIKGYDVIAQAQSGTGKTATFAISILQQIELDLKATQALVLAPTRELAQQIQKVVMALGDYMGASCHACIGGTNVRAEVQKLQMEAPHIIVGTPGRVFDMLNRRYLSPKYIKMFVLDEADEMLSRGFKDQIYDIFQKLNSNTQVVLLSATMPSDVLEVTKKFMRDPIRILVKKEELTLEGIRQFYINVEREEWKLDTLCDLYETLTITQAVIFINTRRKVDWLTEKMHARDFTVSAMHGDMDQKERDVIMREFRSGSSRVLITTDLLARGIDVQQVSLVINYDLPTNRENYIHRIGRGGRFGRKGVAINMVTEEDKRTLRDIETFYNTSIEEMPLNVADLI

| SMILES | PPARγ-mediated PPRE activation (PPARγ) | Effect of pretreatment on SG formation induced by 15d-PGJ2 and PGA1 (HeLa cells) | SG formation (eIF4A; Dang et al., 2006) | Translation (eIF4A; Low et al., 2005) |
| --- | --- | --- | --- | --- |
| O=C(Nc1ccccc1)c1cc([N+](=O)[O-])ccc1Cl [GW9662] | completely blocked | had no effect on SG formation induced by 15d-PGJ2 and PGA1 | – | – |
| CC(/C=C/C(C)=C/[C@@H]1Cc2nc(cs2)[C@@H](C)C[C@@H](N)CC(=O)O[C@@H](C)C/C(C)=C/C=C\C(=O)O1)=C\CN(C)C [PatA, pateamine A] | – | – | induces formation of SGs independently of eIF2F phosphorylation | could block translation by inactivating eIF4A |
